Key:
[1] = molecular target: Mitogen-activated protein kinase 10 (Homo sapiens, UniProt P53779); experiment: Inhibition of JNK3alpha1 (unknown origin) using biotinylated FL-ATF-2 as substrate measured after 22 mins by homogeneous time-resolved fluorescence analysis
[2] = molecular target: Mitogen-activated protein kinase 8 (Homo sapiens, UniProt P45983); experiment: Inhibition of JNK1 (unknown origin) using biotinylated FL-ATF-2 as substrate measured after 22 mins by homogeneous time-resolved fluorescence analysis
[3] = molecular target: Mitogen-activated protein kinase 9 (Homo sapiens, UniProt P45984); experiment: Inhibition of JNK2 (unknown origin) using biotinylated FL-ATF-2 as substrate measured after 22 mins by homogeneous time-resolved fluorescence analysis
[4] = molecular target: Mitogen-activated protein kinase 14 (Homo sapiens, UniProt Q16539); experiment: Inhibition of p38 alpha (unknown origin) using biotinylated FL-ATF-2 as substrate measured after 22 mins by homogeneous time-resolved fluorescence analysis
[5] = Stability in human liver microsome assessed as half life; type: ADME; settings: liver microsomes
[6] = Stability in mouse liver microsome assessed as half life; type: ADME; settings: liver microsomes
[7] = test system: SH-SY5Y; experiment: Cytotoxicity against human SH-SY5Y cells assessed as reduction in cell viability at 10 uM measured after 48 hrs by MTT assay; type: cell-based
[8] = Selectivity index, ratio of IC50 for JNK1 (unknown origin) to IC50 for JNK3 (unknown origin)
[9] = Selectivity index, ratio of IC50 for p38 alpha (unknown origin) to IC50 for JNK3 (unknown origin)

Chain of Mitogen-activated protein kinase 8 (P45983 whole entry): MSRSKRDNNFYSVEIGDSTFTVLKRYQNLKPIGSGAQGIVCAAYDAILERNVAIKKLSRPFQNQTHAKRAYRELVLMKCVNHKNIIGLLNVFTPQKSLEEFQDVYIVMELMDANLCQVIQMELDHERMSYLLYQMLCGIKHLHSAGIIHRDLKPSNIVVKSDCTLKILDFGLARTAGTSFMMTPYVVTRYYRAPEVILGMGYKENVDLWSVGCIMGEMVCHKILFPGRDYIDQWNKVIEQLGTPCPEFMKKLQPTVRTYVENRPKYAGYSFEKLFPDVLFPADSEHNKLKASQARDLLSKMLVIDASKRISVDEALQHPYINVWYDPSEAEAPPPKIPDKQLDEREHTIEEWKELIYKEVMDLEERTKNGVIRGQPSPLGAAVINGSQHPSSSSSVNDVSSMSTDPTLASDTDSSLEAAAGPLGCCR
Chain of Mitogen-activated protein kinase 10 (P53779 whole entry): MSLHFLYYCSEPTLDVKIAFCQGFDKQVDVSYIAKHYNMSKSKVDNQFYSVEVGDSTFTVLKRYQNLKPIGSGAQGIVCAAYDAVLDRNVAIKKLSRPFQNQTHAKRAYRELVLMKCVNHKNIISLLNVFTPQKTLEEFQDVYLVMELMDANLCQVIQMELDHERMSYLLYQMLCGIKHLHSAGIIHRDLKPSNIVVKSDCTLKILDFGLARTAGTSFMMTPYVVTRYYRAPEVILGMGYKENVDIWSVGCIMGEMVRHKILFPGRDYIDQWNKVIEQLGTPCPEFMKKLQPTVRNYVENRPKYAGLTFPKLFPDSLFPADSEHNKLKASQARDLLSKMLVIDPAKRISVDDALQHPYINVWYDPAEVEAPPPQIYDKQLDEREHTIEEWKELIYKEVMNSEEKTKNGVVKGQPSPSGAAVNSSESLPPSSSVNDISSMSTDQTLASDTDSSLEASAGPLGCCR
Chain of Mitogen-activated protein kinase 14 (Q16539 whole entry): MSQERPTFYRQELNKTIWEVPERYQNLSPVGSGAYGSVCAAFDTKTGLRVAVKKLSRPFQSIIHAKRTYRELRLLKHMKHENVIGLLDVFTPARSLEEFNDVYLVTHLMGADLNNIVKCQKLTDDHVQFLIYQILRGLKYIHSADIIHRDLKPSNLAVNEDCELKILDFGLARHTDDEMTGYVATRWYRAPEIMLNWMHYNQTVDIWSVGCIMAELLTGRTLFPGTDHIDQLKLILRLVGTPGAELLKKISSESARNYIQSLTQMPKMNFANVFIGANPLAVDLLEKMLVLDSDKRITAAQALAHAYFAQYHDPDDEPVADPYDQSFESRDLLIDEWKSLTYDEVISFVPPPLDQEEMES
Chain of Mitogen-activated protein kinase 9 (P45984 whole entry): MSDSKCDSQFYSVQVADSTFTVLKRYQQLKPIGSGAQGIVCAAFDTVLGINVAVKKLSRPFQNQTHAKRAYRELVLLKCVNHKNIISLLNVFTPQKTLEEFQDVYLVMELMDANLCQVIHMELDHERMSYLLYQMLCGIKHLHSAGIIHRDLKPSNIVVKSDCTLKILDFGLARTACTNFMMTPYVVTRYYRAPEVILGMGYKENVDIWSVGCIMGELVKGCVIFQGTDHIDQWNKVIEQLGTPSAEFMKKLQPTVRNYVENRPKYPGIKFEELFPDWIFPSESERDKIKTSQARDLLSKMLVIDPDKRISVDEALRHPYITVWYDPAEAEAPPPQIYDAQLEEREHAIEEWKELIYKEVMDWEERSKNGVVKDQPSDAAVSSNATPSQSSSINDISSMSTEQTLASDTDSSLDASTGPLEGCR

| Compound | IC50 [1] [µM] | IC50 [2] [µM] | IC50 [3] [µM] | IC50 [4] [µM] | half-life [5] [min] | half-life [6] [min] | Cell viability [7] [%] | Ratio IC50 [8] | Ratio IC50 [9] | Ratio IC50 ([8]; tested as the 2H-labelled form) | Ratio IC50 ([9]; tested as the 2H-labelled form) |
| --- | --- | --- | --- | --- | --- | --- | --- | --- | --- | --- | --- |
| CNC(=O)c1cc(-n2ncc3cc(Nc4c(F)cccc4Cl)cnc32)cs1 | 0.002 | 0.213 | 0.052 | 0.106 | 30 | 22 | 104 | – | – | – | – |
| COCCNC(=O)c1cc(-n2ncc3cc(Nc4ccccc4Cl)c(F)cc32)cs1 | 0.003 | 0.169 | – | 0.041 | – | – | – | 56 | 14 | – | – |
| CNC(=O)c1cc(-n2ncc3cc(Nc4cccc(OC)c4Cl)c(C)nc32)cs1 | > 10 | > 10 | – | > 10 | – | – | – | – | – | – | – |
| O=C(NC1CCOCC1)c1cc(-n2ncc3cc(Nc4ccccc4Cl)c(F)cc32)cs1 | 0.002 | 0.12 | – | 0.047 | – | – | – | 60 | 24 | – | – |
| Cc1nc2c(cnn2-c2csc(C(=O)NC3COC3)c2)cc1Nc1cc(F)ccc1Cl | 1.07 | > 10 | – | 2.89 | – | – | – | – | – | – | – |
| O=C(NC1CC1)c1cc(-n2ncc3cc(Nc4ccccc4Cl)c(F)cc32)cs1 | 0.001 | 0.15 | – | 0.014 | – | – | – | 150 | 14 | – | – |
| CN1CC[C@H](NC(=O)c2cc(-n3ncc4cc(Nc5ccccc5Cl)ccc43)cs2)C1 | – | – | – | – | – | – | – | – | – | 263 | 226 |
| O=C(Nc1cnn(-c2cccc(C(=O)Nc3cnn(C4CCNC4)c3)c2)c1)Nc1ccccc1Cl (stereo not given) | < 0.001 | – | – | > 20 | – | – | – | – | – | – | – |
| Cc1nc2c(cnn2-c2csc(C(=O)NC3COC3)c2)cc1Nc1ccc(F)cc1Cl | 0.079 | 6 | – | 0.49 | – | – | – | 76 | 6 | – | – |
| CC(C)N1CC[C@@H](NC(=O)c2cc(-n3ncc4cc(Nc5ccccc5Cl)ccc43)cs2)C1 | 0.031 | 0.825 | – | 0.325 | – | – | – | 27 | 10 | – | – |
| Cc1nc2c(cnn2-c2csc(C(=O)NC3COC3)c2)cc1Nc1cccc(F)c1Cl | 0.169 | > 10 | – | 1.42 | – | – | – | > 59 | 8 | – | – |
| O=C(NC1COC1)c1cc(-n2ncc3nc(Nc4ccccc4Cl)ccc32)cs1 | 0.1 | – | – | – | – | – | – | – | – | – | – |
| CNC(=O)c1cc(-n2ncc3nc(Nc4ccccc4Cl)ncc32)cs1 | 1 | – | – | – | – | – | – | – | – | – | – |
| O=C(NCC(F)F)c1cc(-n2ncc3cc(Nc4ccccc4Cl)c(F)cc32)cs1 | 0.004 | 0.333 | – | 0.046 | – | – | – | 83 | 12 | – | – |
| CN1CC[C@H](NC(=O)c2cc(-n3ncc4cc(Nc5ccccc5Cl)c(F)cc43)cs2)C1 | – | – | – | – | – | – | – | – | – | 57 | 60 |
| CNC(=O)c1cc(-n2ncc3cc(Nc4c(F)cccc4OC)c(F)cc32)cs1 | 0.005 | 1.24 | – | 0.065 | – | – | – | 248 | 13 | – | – |
| O=C(N[C@H]1CCOC1)c1cc(-n2ncc3cc(Nc4ccccc4Cl)c(F)cc32)cs1 | 0.002 | 0.178 | – | 0.024 | – | – | – | 89 | 12 | – | – |
| CNC(=O)c1cc(-n2ncc3cc(Oc4ccccc4Cl)ccc32)cs1 | – | – | 1.02 | – | 72 | 15 | 94 | – | – | – | – |
| CNC(=O)c1cc(-n2ncc3cc(Nc4ccccc4Cl)c(OC)cc32)cs1 | 0.02 | 1.1 | – | 0.16 | – | – | – | 55 | 8 | – | – |
| O=C(NC1COC1)c1cc(-n2ncc3cc(Nc4ccccc4Cl)ncc32)cs1 | 0.005 | 0.69 | – | 0.086 | – | – | – | 139 | 17 | – | – |
| CC(C)NC(=O)c1cc(-n2ncc3cc(Nc4ccccc4Cl)c(F)cc32)cs1 | 0.002 | 0.4 | – | 0.124 | – | – | – | 200 | 62 | – | – |
| CC(=O)N1CC[C@H](NC(=O)c2cc(-n3ncc4cc(Nc5ccccc5Cl)c(F)cc43)cs2)C1 | 0.004 | 0.627 | – | 0.065 | – | – | – | 132 | 16 | – | – |
